# Laboratory results published in PubChem BioAssay AID1919015 (Molecular Pharmacology Branch, DTP, NCI, 2023).
# pIC50: −log10 of the molar value. Several values for one entry are separate records, joined by “and”; a condition that tells them apart may be missing. Equal entries are not always repeated.
# Test system: OVCAR-5 complex spheroids with HUVEC/MSC, viability, % test/control
# Test: Anticancer human tumor OVCAR-5 cell line growth inhibition [AhR];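 further: spheroids exposed to compounds for 7 days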;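 on viability, T/C: 100% = DMSO vehicle control wells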
# Details: for viability, T/C: stronger effect = lower value
# Summary of the method: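 Agents were dosed in half-log steps down from roughly clinical Cmax, or from 10 microM where Cmax was unknown, alone and with AhR antagonists. Read-out: percent test/control growth of tumor spheroids containing HUVEC and MSC stromal cells.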
# [1] = curve of first compound, second compound 0.1 µM
# [2] = curve of first compound, second compound 0.316 µM
# [3] = curve of first compound, second compound 1 µM
# [4] = curve of first compound, second compound 3.16 µM
# [5] = curve of first compound, second compound 10 µM
# [6] = second compound 0.1 µM, first compound 0.00316 µM
# [7] = second compound 0.1 µM, first compound 0.01 µM
# [8] = second compound 0.1 µM, first compound 0.0316 µM
# [9] = second compound 0.1 µM, first compound 0.1 µM
# [10] = second compound 0.1 µM, first compound 0.316 µM
# [11] = second compound 0.1 µM, first compound 1 µM
# [12] = second compound 0.316 µM, first compound 0.00316 µM
# [13] = second compound 0.316 µM, first compound 0.01 µM
# [14] = second compound 0.316 µM, first compound 0.0316 µM
# [15] = second compound 0.316 µM, first compound 0.1 µM
# [16] = second compound 0.316 µM, first compound 0.316 µM
# [17] = second compound 0.316 µM, first compound 1 µM
# [18] = second compound 1 µM, first compound 0.00316 µM
# [19] = second compound 1 µM, first compound 0.01 µM
# [20] = second compound 1 µM, first compound 0.0316 µM
# [21] = second compound 1 µM, first compound 0.1 µM
# [22] = second compound 1 µM, first compound 0.316 µM
# [23] = second compound 1 µM, first compound 1 µM
# [24] = second compound 3.16 µM, first compound 0.00316 µM
# [25] = second compound 3.16 µM, first compound 0.01 µM
# [26] = second compound 3.16 µM, first compound 0.0316 µM
# [27] = second compound 3.16 µM, first compound 0.1 µM
# [28] = second compound 3.16 µM, first compound 0.316 µM
# [29] = second compound 3.16 µM, first compound 1 µM
# [30] = second compound 10 µM, first compound 0.00316 µM
# [31] = second compound 10 µM, first compound 0.01 µM
# [32] = second compound 10 µM, first compound 0.0316 µM
# [33] = second compound 10 µM, first compound 0.1 µM
# [34] = second compound 10 µM, first compound 0.316 µM
# [35] = second compound 10 µM, first compound 1 µM
# [36] = second compound 0.1 µM, first compound 3.16 µM
# [37] = second compound 0.1 µM, first compound 10 µM
# [38] = second compound 0.316 µM, first compound 3.16 µM
# [39] = second compound 0.316 µM, first compound 10 µM
# [40] = second compound 1 µM, first compound 3.16 µM
# [41] = second compound 1 µM, first compound 10 µM
# [42] = second compound 3.16 µM, first compound 3.16 µM
# [43] = second compound 3.16 µM, first compound 10 µM
# [44] = second compound 10 µM, first compound 3.16 µM
# [45] = second compound 10 µM, first compound 10 µM
smiles,measurement,setting,value
Nc1ncn(C2CC(O)C(CO)O2)c(=O)n1 (centres undefined) + CC(CO)NC(=O)c1cc(-c2ccc(Cl)cc2)nn(-c2cnn(C)c2)c1=O,pIC50,[1],< 6.00
same,pIC50,[2],< 6.00
same,pIC50,[3],< 6.00
same,pIC50,[4],< 6.00
same,pIC50,[5],< 6.00
same,"viability, T/C",[6],107%
same,"viability, T/C",[7],106%
same,"viability, T/C",[8],98%
same,"viability, T/C",[9],88.5%
same,"viability, T/C",[10],72.6%
same,"viability, T/C",[11],62.4%
same,"viability, T/C",[12],107%
same,"viability, T/C",[13],107%
same,"viability, T/C",[14],99%
same,"viability, T/C",[15],83.2%
same,"viability, T/C",[16],70.8%
same,"viability, T/C",[17],62%
same,"viability, T/C",[18],116%
same,"viability, T/C",[19],114%
same,"viability, T/C",[20],109%
same,"viability, T/C",[21],91.6%
same,"viability, T/C",[22],71.3%
same,"viability, T/C",[23],66.4%
same,"viability, T/C",[24],105%
same,"viability, T/C",[25],99.4%
same,"viability, T/C",[26],97.9%
same,"viability, T/C",[27],83.7%
same,"viability, T/C",[28],70.6%
same,"viability, T/C",[29],59.2%
same,"viability, T/C",[30],97.6%
same,"viability, T/C",[31],99.9%
same,"viability, T/C",[32],97.4%
same,"viability, T/C",[33],88.4%
same,"viability, T/C",[34],72.9%
same,"viability, T/C",[35],64.2%
Cn1ncnc1C1c2n[nH]c(=O)c3cc(F)cc(c23)NC1c1ccc(F)cc1 (centres undefined),"viability, T/C",compound 0.000316 µM,104% and 100% and 102%
same,"viability, T/C",compound 0.001 µM,101% and 99% and 103%
same,"viability, T/C",compound 0.00316 µM,105% and 94.4% and 102%
same,"viability, T/C",compound 0.01 µM,98.9% and 92.5% and 97.6%
same,"viability, T/C",compound 0.0316 µM,101% and 92.3% and 97.3%
same,"viability, T/C",compound 0.1 µM,95.8% and 88% and 91.3%
same,pIC50,curve of compound,< 7.00
Cn1ncnc1C1c2n[nH]c(=O)c3cc(F)cc(c23)NC1c1ccc(F)cc1 (centres undefined) + Cc1cncc(-c2nc(NCCc3c[nH]c4ccccc34)c3ncn(C(C)C)c3n2)c1,pIC50,[1],< 7.00
same,pIC50,[2],< 7.00
same,pIC50,[3],< 7.00
same,pIC50,[4],< 7.00
same,pIC50,[5],> 9.50
same,"viability, T/C","second compound 0.1 µM, first compound 0.000316 µM",99.4%
same,"viability, T/C","second compound 0.1 µM, first compound 0.001 µM",102%
same,"viability, T/C",[6],103%
same,"viability, T/C",[7],104%
same,"viability, T/C",[8],101%
same,"viability, T/C",[9],99.2%
same,"viability, T/C","second compound 0.316 µM, first compound 0.000316 µM",101%
same,"viability, T/C","second compound 0.316 µM, first compound 0.001 µM",104%
same,"viability, T/C",[12],100%
same,"viability, T/C",[13],99.2%
same,"viability, T/C",[14],99.4%
same,"viability, T/C",[15],95.2%
same,"viability, T/C","second compound 1 µM, first compound 0.000316 µM",98.1%
same,"viability, T/C","second compound 1 µM, first compound 0.001 µM",97.9%
same,"viability, T/C",[18],95.8%
same,"viability, T/C",[19],96.4%
same,"viability, T/C",[20],94.6%
same,"viability, T/C",[21],93.6%
same,"viability, T/C","second compound 3.16 µM, first compound 0.000316 µM",85%
same,"viability, T/C","second compound 3.16 µM, first compound 0.001 µM",87.3%
same,"viability, T/C",[24],86.3%
same,"viability, T/C",[25],87.7%
same,"viability, T/C",[26],83.4%
same,"viability, T/C",[27],89.5%
same,"viability, T/C","second compound 10 µM, first compound 0.000316 µM",26.6%
same,"viability, T/C","second compound 10 µM, first compound 0.001 µM",28.5%
same,"viability, T/C",[30],30.9%
same,"viability, T/C",[31],27.2%
same,"viability, T/C",[32],23%
same,"viability, T/C",[33],30.7%
Nc1ccccc1NC(=O)c1ccc(CNC(=O)OCc2cccnc2)cc1 + Cc1ccccc1N=Nc1ccc(NC(=O)c2ccnn2C)c(C)c1,pIC50,[1],6.04
same,pIC50,[2],6.08
same,pIC50,[3],6.07
same,pIC50,[4],6.08
same,pIC50,[5],5.95
same,"viability, T/C",[8],95.1%
same,"viability, T/C",[9],89.9%
same,"viability, T/C",[10],74.8%
same,"viability, T/C",[11],48.6%
same,"viability, T/C",[36],20.3%
same,"viability, T/C",[37],7.82%
same,"viability, T/C",[14],98.8%
same,"viability, T/C",[15],93.6%
same,"viability, T/C",[16],76.6%
same,"viability, T/C",[17],44.4%
same,"viability, T/C",[38],19.3%
same,"viability, T/C",[39],8.39%
same,"viability, T/C",[20],102%
same,"viability, T/C",[21],94.4%
same,"viability, T/C",[22],83.9%
same,"viability, T/C",[23],43.8%
same,"viability, T/C",[40],18.7%
same,"viability, T/C",[41],9.13%
same,"viability, T/C",[26],103%
same,"viability, T/C",[27],99.9%
same,"viability, T/C",[28],79.1%
same,"viability, T/C",[29],44.1%
same,"viability, T/C",[42],19%
same,"viability, T/C",[43],9.43%
same,"viability, T/C",[32],91.1%
same,"viability, T/C",[33],96.1%
same,"viability, T/C",[34],75.4%
same,"viability, T/C",[35],56%
same,"viability, T/C",[44],19.9%
same,"viability, T/C",[45],9.42%
CC(C)c1c(-c2ccccc2)nc2c(C#N)c[nH]n2c1=O,"viability, T/C",compound 0.0316 µM,103% and 100% and 101%
same,"viability, T/C",compound 0.1 µM,103% and 99.8% and 106%
same,"viability, T/C",compound 0.316 µM,104% and 101% (2×)
same,"viability, T/C",compound 1 µM,105% and 104% and 101%
same,"viability, T/C",compound 3.16 µM,105% (2×) and 103%
same,"viability, T/C",compound 10 µM,109% and 106% (2×)
same,pIC50,curve of compound,< 5.00
COc1cc(Nc2ncc3c(n2)-c2ccc(Cl)cc2C(c2c(F)cccc2OC)=NC3)ccc1C(=O)O + Cc1ccccc1N=Nc1ccc(NC(=O)c2ccnn2C)c(C)c1,pIC50,[1],5.63
same,pIC50,[2],5.53
same,pIC50,[3],5.30
same,pIC50,[4],5.21
same,pIC50,[5],5.20
same,"viability, T/C",[8],89.5%
same,"viability, T/C",[9],81.7%
same,"viability, T/C",[10],60.2%
same,"viability, T/C",[11],57.2%
same,"viability, T/C",[36],50.3%
same,"viability, T/C",[37],42%
same,"viability, T/C",[14],89.4%
same,"viability, T/C",[15],86.8%
same,"viability, T/C",[16],64.2%
same,"viability, T/C",[17],59.5%
same,"viability, T/C",[38],52.3%
same,"viability, T/C",[39],41.7%
same,"viability, T/C",[20],91.2%
same,"viability, T/C",[21],87.8%
same,"viability, T/C",[22],68.5%
same,"viability, T/C",[23],64.4%
same,"viability, T/C",[40],55.4%
same,"viability, T/C",[41],43.7%
same,"viability, T/C",[26],97.6%
same,"viability, T/C",[27],91.3%
same,"viability, T/C",[28],74.8%
same,"viability, T/C",[29],68.1%
same,"viability, T/C",[42],54.5%
same,"viability, T/C",[43],46.2%
same,"viability, T/C",[32],93.3%
same,"viability, T/C",[33],86.4%
same,"viability, T/C",[34],74.2%
same,"viability, T/C",[35],67.2%
same,"viability, T/C",[44],54.7%
same,"viability, T/C",[45],46.6%
Cc1cncc(-c2nc(NCCc3c[nH]c4ccccc34)c3ncn(C(C)C)c3n2)c1,"viability, T/C",compound 0.1 µM,98.8% [middle of 20 runs]
same,"viability, T/C",compound 0.316 µM,97.6% [middle of 19 runs]
same,"viability, T/C",compound 1 µM,92.7% [middle of 20 runs]
same,"viability, T/C",compound 3.16 µM,78.4% [middle of 20 runs]
same,IC50,"compound alone, run of 08/16/2022",5.52 µM [middle of 22 runs]
